Measurements reported in patent publication US20040131692A1, “Nanoparticles made of protein with coupled apolipoprotein e for penetration of the blood-brain barrier and methods for the production thereof” (priority 2001, published 2004).

Tested on: mice
Assay: tail-flick test, analgesic effect (nociceptive response) after intravenous injection
Type: in vivo
Conditions: i.v. dalargin 7.5 mg/kg, comparison data originate from an earlier experiment
Description: The preparation was applied to mice […] at a dosage of 7.5 mg/kg of dalargin. This corresponds to an application amount of 200 μl of the aforementioned preparation per mouse, based on an average body weight of a mouse of 20 g.
The analgesic effect (nociceptive response) was determined by the tail-flick test, in which a hot beam of light is projected onto the tail of the mouse and the time until the mouse draws away its tail is measured. After 10 seconds (=100% MPE) the experiment was truncated so as not to cause injury to the mouse. The maximally possible analgesic effect (MPE) was determined in accordance with the following formula: [formula]
Negative MPE values result if after administration of the administration the mouse draws away its tail before the treatment.
With the aid of dalargin-loaded avidin-modified HSA nanoparticles the analgesic effects indicated in Table 1 were obtained after intravenous injection.

dalargin [Dalargin solution]
Analgesic effect [% MPE] (30 min): 10.0 ± 9.8 % MPE
Analgesic effect [% MPE] (45 min): 9.3 ± 2.8 % MPE
Analgesic effect [% MPE] (90 min): 4.7 ± 5.1 % MPE
Analgesic effect [% MPE] (120 min): 2.0 ± 6.1 % MPE
